Laboratory results published in patent publication US20250114329A1, “METHODS FOR TREATING AML-MRC AND MDS” (Ascentage Pharma (Suzhou) Co., LTD, priority 2022, published 2025).

Tests used:
[1] = tested on: relapsed/refractory AML, CMML or MDS (AML-MRC subject); assay: Phase Ib/II study of Compound C alone or in combination with azacitidine (Example 1); format: in vivo, human; conditions: Compound C alone, 150 mg
Description: This was a two part study in patients with relapsed/refractory (R/R) acute myeloid leukemia (AML), Chronic Myelomonocytic Leukemia (CMML) and relapsed/progressed higher-risk myelodysplastic syndrome (MDS), that was designed to evaluate the safety and tolerability of Compound C as a single agent in Part I, followed by a combination of Compound C plus 5-azacitidine in Part II. Part I: Dose escalation of Compound C will use standard 3+3 design. Compound C will be administered orally once daily (QD) on Day 1 to 5 every 28-day cycle. The starting target dose is 100 mg (dose level; DL1) and will be increased in subsequent cohorts to 150 mg (DL2), 200 mg (DL3) and 250 mg (DL4), accordingly. Part II: Compound C will be co-administered with 5-azacitidine SC or IV at 75 mg/m^2 once daily on 7 out of 9 days from Day 1 to Day 9 every 28-day cycle.

H929 cells = assay: Western Blotting assay; format: cell-based, human; conditions: 24 hrs or 48 hrs
Method: After treatments with single or combined test articles, cultured cells were harvested and washed with ice-cold PBS. Cell pellets were lysed in RIPA buffer containing 1% PMSF, 1% phosphatase inhibitor, and 1% protease inhibitors. Protein concentrations were determined using the BCA Protein Assay Kit. Whole tumor lysates ([…]) were separated on an 8-12% SDS-PAGE. The separated proteins were transferred to a PVDF membrane. The PVDF membrane was blocked with 1-3% BSA buffer for 30 min to 1 hour at room temperature. Incubate membrane with diluted primary antibody in 1×TBST containing 1-3% BSA at 4° C., with gentle agitation overnight. Wash the membrane with 1×TBST three times. Incubate membrane with HRP-conjugated secondary antibody with gentle agitation for 1 hour at room temperature. Wash the membrane with 1×TBST three times. The signals were visualized with Super ECL Detection Reagent and detected by chemiluminescence imaging system.

[2] = tested on: R/R AML with myelodysplasia-related changes; assay: Phase Ib/II study of Compound C alone or in combination with 5-azacitidine or cytarabine (Example 2); format: in vivo, human; conditions: Compound C alone, person, R/R AML-MRC
Description: This was a three parts study in patients with relapsed/refractory acute myeloid leukemia (AML), relapsed or progressed high or very high risk myelodysplastic syndrome (MDS) that was designed to evaluate the safety and tolerability of Compound C as a single agent in Part I, followed by a combination dose escalation of Compound C plus either 5-azacitidine or cytarabine in Part II and a dose expansion of the combination treatment in part III. Part I: Dose escalation of Compound C will use standard 3+3 design. Compound C will be administered orally once daily (QD) on Day 1 to 7 every 28-day cycle. The starting target dose is 100 mg (dose level; DL1) and will be increased in subsequent cohorts to 150 mg (DL2), 200 mg (DL3) and 250 mg (DL4), accordingly. Part II: Dose escalation of Compound C combination with either 5-azacitidine or cytarabine, which includes two Arms, Arm A and Arm B. Arm A will enroll patients with relapsed or progressed high or very high risk MDS and Arm B will enroll patients with R/R AML. In this part, 5-azacitidine and cytarabine will be administered with fixed dose. The starting dose of Compound C was 100 mg and will be increased subsequently to 150 mg and 200 mg. In Arm A, Compound C will be co-administered with 5-azacitidine subcutaneously injected at 75 mg/m^2 once daily on Day 1 to 7 every 28-day cycle. In Arm B, Compound C will be co-administered once daily on Day 1 to 7 every 28-day cycle with cytarabine intravenously administered at 1 g/m^2 once daily on Day 3 to 7 every 28-day cycle.

Structure (SMILES): CCN1[C@@H](C(=O)NC23CCC(C(=O)O)(CC2)CC3)[C@H](c2cccc(Cl)c2F)[C@]2(C(=O)Nc3cc(Cl)ccc32)C12CCCCC2 [Compound C, alrizomadlin]
- End of cycle 1 disease assessment ([1]; person, AML-MRC (TP53w, FLT3-, IDH1/2-), prior venetoclax + decitabine): CRi
- Blast at C2D1 ([1]; reduced from 43%, Day 1 of cycle 2): to 13%
- Blast at C3D1 ([1]; reduced from 43%, Day 1 of cycle 3): C2D1, to 3%
- P53, MDM2 and P21 expression (H929 cells): upregulated
- Response ([2]; 100 mg, prior D-CAG, C1D62): CRi
- Response ([2]; 200 mg, prior D-CAG, C3D21): CRi
- Response ([2]; 250 mg, several prior regimens): MLFS
